Assay results reported in patent US20120035079A1, “GENOTOXICITY TESTING” (priority 2009, published 2012).
Read-outs that look alike come from different tables or passages of the source.

Experiments:
[1] = system: human GADD45α gene promoter and regulatory element linked to Gaussia luciferase (GD532-GLuc) in TK6 cells; assay: GLuc genotoxicity assay: GLuc-T01 cells (TK6 with pEP-GD532-GLuc), 48 hour endpoint, without S9
Experimental: The assay has the following steps, as further described below: (1) preparing a microplate for use in an assay; (2) conducting the assay in the microplates; (3) collecting and analysing the data; and (4) making a judgment on genome damage and the consequences.
The assay is performed using a microplate reader capable of luminescence and absorbance readings, equipped with injectors capable of single well additions.
Using the standard dilution protocol described here, all concentrations are halved in the microplate well when a sample volume of 75 μl is combined with 75 μl of cell culture. All standard and test chemicals and reagents should be prepared fresh shortly before the assay is performed.
An initial concentration of 2 mM or 1 mg/ml (whichever is lowest) is recommended (equating to 1 mM or 500 μg/ml of test compound on the microplate). It is desirable that the test compound is fully soluble at the top concentration tested. A minimum of 250 μl of each test compound is required per plate. […] If the compound precipitates from solution when the DMSO standard is added to water, the original DMSO stock standard can be diluted further with 100% DMSO. The 20 μl+980 μl water dilution step is then repeated to produce a fresh test standard.
Standard cell culture methods are used to prepare GLuc-TO1 cells for use in the assay. […] Cells are grown in routine culture medium:
The following standard protocol may be followed. […] To achieve this, 150 microlitres of the test chemical solution are put into a microplate well. […] This produces 9 serial dilutions of 75 microlitres each.
75 μl of GLuc-T01 cells in Assay Medium (GS-HC-AM) as described above are then added to each well as appropriate.
The following controls are included in the microplate: • a. Blank well. • b. Test compound/sample alone. • c. Assay medium alone. • d. Control compound with cells.
Once finished, the microplates are covered with a breathable membrane. […] Plates should be incubated and analysed after 48 hours +/−2 hours.
Plates are first read for absorbance in each well, at a wavelength of ˜620 nm. […] An example of a suitable reader and injector system is a Tecan Infinite F500
Following the 48 hour incubation, luminescence and absorbance data are collected from the microplates. A microplate reader combining luminescence and absorbance functionality is used; by way of example, this reader may be a Tecan Infinite F500 (Tecan UK Ltd.). Luminescence data are collected with an integration time of 3 seconds after injection of the substrate and shaking of the microplate (within the reader). Optical absorbance is measured through a 600 nm or 620 nm filter. These luminescence and absorbance data are transported into a Microsoft Excel spreadsheet, and converted to graphical data. […] Luminescence data are divided by absorbance data to give ‘brightness units’, the measure of average GLuc induction per cell. […] In this way, one can distinguish between a small number of highly luminescent cells and a large number of weakly luminescent cells. The decision (see below), on whether or not a compound is classified as being genotoxic is generated automatically within the software.
The cytotoxicity threshold is set at 80% of the cell density reached by the untreated control cells.
Anomalous brightness data is generated when the toxicity leads to a final cell density less than 30% that of the blank. Genotoxicity data is not calculated above this toxicity threshold.
A series of genotoxicity assays were performed using a TK6 cell line having the GD532-GLuc expression cassette (a “GLuc assay”). The assays were performed using the experimental protocol provided in a later example.

[2] = system: GADD45α-FLuc expression cassette (GD532-L) in TK6 cells; assay: FLuc genotoxicity assay: TK6 cells with GADD45α-FLuc (GD532-L) expression cassette; conditions: for detection as genotoxic with FLuc at the 48 hour endpoint: FLuc measured 8-48 hours after treatment, FIG. 4
Excerpt: The reagents for the FLuc assay were originally taken from the article Wettey F R, Jackson A P. Luciferase Reporter Assay. In: Reviews and Protocols in DT40 Research. […] The reagents and their concentrations are listed below. The pH of both mixes is adjusted to pH 7.8 in order to maximise the light output from luciferase.
It was decided to directly lyse the TK6 cells in the GreenScreen HC assay medium as to pellet and wash the cells would add additional steps to the protocol and therefore increase variability into the data. […] The solution of this combined lysis and assay mix (L&A buffer) is shown below.
The final concentration listed above is the concentration of the reagents after the L&A buffer has been combined with the GreenScreen HC assay media. The final concentration of the reagents is fixed and based on the information from the Wettey and Jackson protocol. The FLuc assay as it is currently performed relies on the addition of 40 μl of L&A buffer to 120 μl of GreenScreen HC assay buffer. Therefore, the initial concentration of the reagents in the L&A buffer has to be four times greater than the desired final concentration. The L&A buffer should be pH 8.0 as when the L&A buffer is combined with the GreenScreen HC assay medium (pH 7.2) this give a final pH of ˜7.8.
The preparation of pEP-GD532-GLuc is described in the accompanying examples. Using a similar strategy the inventors also prepared plasmid pEP-GD532-L, in which FLuc is used as the reporter protein. TK6 cells are transfected with a plasmid having a GD532-L or GD532-GLuc expression cassette by electroporation and clones bearing the reporter plasmids are selected.
The inventors wished to determine which of the GLuc and FLuc reporter proteins were most suitable for use in a genotoxicity assay. To determine this, they performed a series of experiments in which cells having the GD532-L or GD532-GLuc expression cassette were exposed to a test compound, and the activity of GLuc and FLuc measured and compared to the standard GADD45α-GFP expression cassette.
FLuc cells were combined with a several known genotoxins and non-genotoxins. FLuc expression was measured at 8, 16, 24, 32, 40 and 48 hours after treatment.

[3] = system: GD532-GLuc reporter in GLuc-T01 cells with S9 liver extract; assay: S9 metabolic activation GLuc assay with thiazole orange cell number estimation; conditions: TO cell number estimation, threshold 1.5, FIG. 7B
Experimental: In an S9-incorporating assay, GLuc-T01 cells are exposed to the test compound in the presence of the S9 extract in a mixture with enzyme co-factors (for example, glucose-6-phosphate (2.5 mM) and β-nicotinamide adenine dinucleotide phosphate (0.5 mM)). The S9 extract is normally used at a final concentration of 1% (v/v) in the assay microplate. […] The conditions of an S9-incorporating assay (for example, time of exposure and type of S9—animal species, chemical induction of hepatic enzymes etc.) may be varied according to experimental requirements.
The cell stain used in the adapted protocol is thiazole orange (TO) which is a cyanine dye that binds to nucleic acids. The binding of TO to DNA and RNA greatly enhances its fluorescence intensity, allowing for its detection without the need to wash away background, unbound TO.
The method requires GLuc-T01 cells to be lysed to allow access to the DNA of all cells present in the microplate well.
In the microplate, the final concentration of TO is 15 μM and for Triton-X100 it is 1% (v/v).
Where the assay includes S9 liver extracts, the genotoxic threshold is set at a relative GLuc induction of 1.5 (i.e. an 50% increase).

[4] = system: GADD45α-GFP expression cassette in TK6 cells; assay: GADD45α-GFP reporter assay (GreenScreen HC); format: cell-based, human; conditions: FIG. 3, 24 hour timeframe
Experimental: Studying FIG. 3 allows for the construction of a number of hypotheses regarding the stability of the reporter proteins and how this will affect the GreenScreen HC assay. The FLuc protein has been reported to have a half-life within cells of ˜3 hours. In comparison, GFP has been reported to have a half-life within cells of ˜26 hours. In this respect GFP can be considered to give more of a cumulative measure of GADD45α induction whilst FLuc will report only on recent GADD45 induction.

[5] = TK6 with GD532-GLuc, 48 hour endpoint
[6] = lowest test compound concentration that produces a relative GLuc induction greater than the 1.8 threshold

Structure (SMILES) | GLuc Genotox Result [1] | GLuc Genotox LEC ([1]; human, 48 h) [µg/mL] | other results
Nc1ncn([C@@H]2O[C@H](CO)[C@@H](O)[C@H]2O)c(=O)n1 [5-Azacytidine] | +++ | 0.38 | –
O=c1[nH]cc(F)c(=O)[nH]1 [5-Fluorouracul] | – | – | detection as genotoxic with FLuc at the 48 hour endpoint [2]: would not have been detected as genotoxic; genotoxicity outcome in the GLuc assay (in words) [1, 5]: correctly identified; GLuc Genotox LEC [1, 6]: 0.63 µg/mL
Nc1cc2c3ccccc3ccc2c2ccccc12 [6-Aminochrysene] | – | – | detection of pro-genotoxin in S9 GLuc assay [3]: detected
C[C@@]1(CO)[C@H](O)CC[C@@]2(C)[C@H]1CC[C@H]1C[C@@H]3C[C@@]12CC[C@]3(O)CO [Aphidicolin] | – | – | GLuc Genotox LEC [1, 6]: 0.13 µg/mL
CCCCNC(=O)n1c(NC(=O)OC)nc2ccccc21 [Benomyl] | +++ | 1.81 | –
CC[C@@]1(O)C(=O)OCc2c1cc1n(c2=O)Cc2cc3ccccc3nc2-1 [Camptothecin] | – | – | GLuc Genotox LEC [1, 6]: 0.08 µg/mL
COc1cc2c(c(OC)c1OC)-c1ccc(OC)c(=O)cc1[C@@H](NC(C)=O)CC2 [Colchicine] | – | – | detection as genotoxic with FLuc at the 48 hour endpoint [2]: would not have been detected as genotoxic; genotoxicity outcome in the GLuc assay (in words) [1, 5]: correctly identified
COc1cc([C@@H]2c3cc4c(cc3[C@@H](O[C@@H]3O[C@@H]5CO[C@@H](C)O[C@H]5[C@H](O)[C@H]3O)[C@H]3COC(=O)[C@H]23)OCO4)cc(OC)c1O [Etoposide] | +++ | – | genotoxicity outcome in the GLuc assay (in words) [1]: positive
COC1=CC(=O)C[C@@H](C)[C@]12Oc1c(Cl)c(OC)cc(OC)c1C2=O [Griseofulvin] | +++ | – | –
OO [Hydrogen Peroxide] | +++ | 5.00 | –
NC(=O)NO [Hydroxyurea] | – | 4.75 | –
COS(C)(=O)=O [Methyl methanesulfonate] | +++ | 6.25 | –
CN(N=O)C(N)=O [N-Nitroso-N-methylurea] | – | – | test concentration at which the highest relative induction is seen ([2]; FLuc reporter, FIG. 3, 24 hour timeframe): 32 µg/mL; concentrations that cause significant cell death ([2]; TK6 reporter cells, FIG. 3, explains decrease in FLuc signal): greater than 32 μg/ml; GLuc Genotox LEC [1, 6]: 8.05 µg/mL; concentration at which GADD45α induction (GFP signal) peaks [4]: at least 258 μg/ml
CC(=O)O[C@H]1C(=O)[C@@]2(C)[C@H]([C@H](OC(=O)c3ccccc3)[C@]3(O)C[C@H](OC(=O)[C@H](O)[C@@H](NC(=O)c4ccccc4)c4ccccc4)C(C)=C1C3(C)C)[C@]1(OC(C)=O)CO[C@@H]1C[C@@H]2O [Paclitaxel (Taxol), Paclitaxel] | +++ | 0.03 | –
CCc1nc(N)nc(N)c1-c1ccc(Cl)cc1 [Pyrimethamine] | +++ | 0.39 | –
CC[C@]1(O)C[C@H]2CN(CCc3c([nH]c4ccccc34)[C@@](C(=O)OC)(c3cc4c(cc3OC)N(C=O)[C@H]3[C@@](O)(C(=O)OC)[C@H](OC(C)=O)[C@]5(CC)C=CCN6CC[C@]43[C@@H]65)C2)C1 [Vincristine Sulphate] | +++ | 0.0008 | –
OCCO [ethylene glycol] | – | – | genotoxicity outcome in the GLuc assay (in words) [1, 5]: correctly identified
